Assay results as given in US20260206761A1, “HETEROARYL-TRIAZOLE COMPOUNDS AS PESTICIDES” (Bayer Aktiengesellschaft, priority 2019, published 2026).

Key:
Assay type in all cases: in vivo
[1] = tested on: southern root-knot nematode (Meloidogyne incognita); experiment: Meloidogyne incognita test; details: 336 h, application rate 20 ppm, after 14 days, read-out: nematicidal activity (based on gall formation)
Experimental: Meloidoyne incognita—Test
Solvent: 125.0 parts by weight of acetone
To produce a suitable preparation of active compound, 1 part by weight of active compound is mixed with the stated amount of solvent, and the concentrate is diluted with water to the desired concentration.
Vessels are filled with sand, a solution of the active ingredient, a suspension containing eggs and larvae of the southern root-knot nematode (Meloidogyne incognita) and salad seeds. The salad seeds germinate and the seedlings grow. Galls develop in the roots.
After 14 days the nematicidal activity is determined based on the percentage of gall formation. 100% means no galls were found and 0% means the number of galls found on the roots of the treated plants was equal to that in untreated control plants.

[2] = tested on: adult unfed cat fleas (Ctenocephalides felis); experiment: Ctenocephalides felis oral test; details: 48 h, read-out: activity (mortality)
Summary of the method: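 About 20 adult unfed fleas fed through parafilm on cattle blood containing compound (DMSO stock diluted in blood), blood held at 37 °C and fleas at room temperature. Mortality (%) scored after 2 days.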

[3] = tested on: adult engorged female ticks (Rhipicephalus microplus); experiment: Rhipicephalus (Boophilus) microplus injection test; details: 168 h, egg deposition after 7 days, read-out: activity (efficacy: infertile eggs); for pest or weed control at 4 pg: application rate 4 pg/animal; for pest or weed control at 0.02 mg: application rate 20 μg/animal
Summary of the method: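 Abdominal injection, 1 μL compound/DMSO, n=5 engorged adult females; climate-chamber incubation. Readout d7: fertile egg laying; doubtful eggs held to hatch (~42 d). % efficacy = infertile eggs (100% all infertile).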

[4] = tested on: Rhipicephalus microplus larvae (strain Parkhurst, resistant against synthetic pyrethroids); experiment: Rhipicephalus (Boophilus) microplus in-vitro contact test, larval cattle tick; details: after 48 hours, read-out: activity (efficacy: larvae dead or moribund); for pest or weed control at 100 g/ha: application rate 1 pg/cm^2 (=100 g/ha); for pest or weed control at 500 g/ha: application rate 5 pg/cm^2 (=500 g/ha)
Summary of the method: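 Larvae (20-50 per tube) exposed to dry compound film on glass tube walls, 5 μg/cm^2 at 900 ppm, applied from acetone. After 48 h at 27° C./85% RH, tubes tapped and negative geotaxis scored; efficacy as percent dead or moribund larvae.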

[5] = tested on: larvae of the banded cucumber beetle (Diabrotica balteata); experiment: Diabrotica balteata spray test; details: 168 h, after 7 days, read-out: activity (efficacy: seedlings grown); for pest or weed control at 100 g/ha: application rate 100 g/ha (=32 pg/well)
Summary of the method: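 Read-out is % efficacy at day 7, 0% meaning no seedling growth and 100% growth equal to uninfested untreated controls. Test solutions (acetone/DMF concentrate diluted with water carrying 1000 ppm emulsifier) were sprayed onto 1-day-germinated wheat seeds, 5 per well, before infestation with 10-20 larvae.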

[6] = tested on: green peach aphid (Myzus persicae); experiment: Myzus persicae oral test; details: 120 h, application rate 4 ppm, after 5 days
Summary of the method: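 Readout: % mortality at day 5, where 100% = all aphids dead and 0% = none dead. Feeding via parafilm membrane over compound in IPL41 medium (33%+15% sugar); mixed-age population. Stock in acetone (1:100 w/w), water-diluted.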

[7] = tested on: adult brown dog ticks (Rhipicephalus sanguineus); experiment: Rhipicephalus sanguineus in-vitro contact test, adult brown dog ticks; details: after 48 hours, read-out: activity (efficacy: ticks dead or moribund); for pest or weed control at 5 µg/cm2, 500 g/ha: application rate 5 μg/cm^2 (=500 g/ha)
Summary of the method: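 Contact exposure: dried compound film inside glass tubes, dose 5 μg/cm^2 at 900 ppm, 5-10 adults per tube at room temperature. Scored at 48 h via a heat-escape test on a 45-50° C plate for up to 5 min.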

[8] = tested on: green peach aphid (Myzus persicae); experiment: Myzus persicae spray test; details: 120 h, application rate 100 g/ha, after 5 days
Summary of the method: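 Chinese cabbage leaf disks carrying all instars of M. persicae sprayed with compound in acetone/DMF, diluted in water with 1000 ppm alkylarylpolyglycol ether emulsifier. Percent mortality scored after 5 days (100% = all aphids killed).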

[9] = tested on: fall armyworm larvae (Spodoptera frugiperda); experiment: Spodoptera frugiperda spray test; details: 168 h, read-out: activity (mortality)
Summary of the method: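 Larvae of fall armyworm placed on dried maize leaf sections previously sprayed with emulsified compound (acetone/DMF solvent, water with 1000 ppm emulsifier). Percent of caterpillars killed recorded on day 7, 0–100% scale.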

[10] = tested on: larvae of the southern green stink bug (Nezara viridula); experiment: Nezara viridula spray test; details: 96 h, after 4 days; for mortality at 100 g/ha: application rate 100 g/ha; for mortality at 500 g/ha: application rate 500 g/ha
Summary of the method: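 Larva-infested barley (Hordeum vulgare) plants received a spray of test solution prepared from an acetone/DMF concentrate diluted in emulsifier-containing water (1000 ppm). Percent kill read 4 days later; 0% means no stink bugs dead.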

[11] = tested on: adult cat fleas (Ctenocephalides felis); experiment: Ctenocephalides felis in-vitro contact test, adult cat flea; details: application rate 5 μg/cm^2 (=500 g/ha), after 48 hours, read-out: activity (efficacy: fleas dead or moribund)
Summary of the method: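 Efficacy, as % of fleas dead or moribund, was read 48 h after 5-10 adult cat fleas were confined in glass tubes whose walls carried dried compound film (900 ppm, […]). Fleas failing to escape upward from a 45-50° C plate within 5 min counted as dead or moribund.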

[12] = tested on: Aedes aegypti strain MONHEIM; experiment: Aedes aegypti test (AEDSAE surface treatment & contact assay); details: 24 hours after contact, read-out: efficacy (mortality); for mortality at 4 mg/m2: surface concentration 4 mg/m^2, exposure 30 minutes; for mortality at 20 mg/m2: surface concentration 20 mg/m^2, exposure 30 minutes
Summary of the method: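 Percent mortality was read 24 h after adult MONHEIM mosquitoes were held for 30 min on a tile treated with compound. Compound applied from acetone solution (2 mg/ml) containing 2000 ppm rapeseed oil methyl ester, after evaporation.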

[13] = tested on: brown planthopper (Nilaparvata lugens); experiment: Nilaparvata lugens spray test; details: 96 h, after 4 days
Experimental: Nilaparvata lugens—Spray Test
Solvent: 78.0 parts by weight of acetone • • 1.5 parts by weight of dimethylformamide
Emulsifier: alkylarylpolyglycol ether
To produce a suitable preparation of active compound, 1 part by weight of active compound is mixed with the stated amount of solvents and is diluted with water, containing an emulsifier concentration of 1000 ppm, to the desired concentration. Further test concentrations are prepared by dilution with emulsifier containing water.
Rice plants (Oryza sativa) are sprayed with a preparation of the active ingredient of the desired concentration and the plants are infested with the brown planthopper (Nilaparvata lugens).
After 4 days mortality in % is determined. 100% means all planthoppers have been killed and 0% means none of the planthoppers have been killed.

[14] = tested on: Anopheles funestus strain FUMOZ-R; experiment: Anopheles funestus test (ANPHFU surface treatment & contact assay); details: 24 hours after contact, read-out: efficacy (mortality)
Experimental: Anopheles funestus Test (ANPHFU Surface Treatment & Contact Assay)
Solvent: Aceton+2000 ppm rapeseed oil methyl ester (RME)
In order to produce a sufficient, active ingredient containing solution it is necessary to solve the test compound in the solvent-mix (acetone at 2 mg/ml/RME 2000 ppm). This solution is pipetted onto a glazed tile and after evaporation of the acetone, adult mosquitoes of the species Anopheles funestus strain FUMOZ-R (Hunt et al., Med. Vet. Entomol. 2005 September; 19(3): 271-275) are placed onto the dried surface. The exposure time is 30 minutes. Mortality in percent (%) is determined 24 hours after contact of the insects to the treated surface. 100% mortality means that all tested insects are dead, whereas 0% means that no insect died.

SMILES	pest or weed control at 20 ppm [1] [%]	mortality at 100 ppm [2] [%]	pest or weed control at 4 pg [3] [%]	pest or weed control at 0.02 mg [3] [%]	pest or weed control at 100 g/ha [4] [%]	pest or weed control at 500 g/ha [4] [%]	pest or weed control at 100 g/ha [5] [%]	mortality at 4 ppm [6] [%]	pest or weed control at 5 µg/cm2, 500 g/ha [7] [%]	mortality at 100 g/ha [9] [%]	also measured
CCS(=O)(=O)c1cc(Cl)cc(C(=O)N[C@@H](C)c2nc(C(C)C)nn2-c2ccc(C#N)cn2)c1 [I-17]	90	90	100	100	80	80	–	–	–	–	–
CC(C)c1nc([C@H](C)NC(=O)c2cc(Cl)cc(S(=O)(=O)C3CC3)c2)n(-c2ccc(C#N)cn2)n1 [I-18]	100	80	100	100	90	90	100	100	100	–	–
CC(C)c1nc([C@H](C)NC(=O)c2cc(Cl)cc(S(=O)(=O)CC(F)(F)F)c2)n(-c2ccc(C#N)cn2)n1 [I-21, 3-chloro-N-{(1S)-1-[1-(5-cyanopyridin-2-yl)-3-isopropyl-1H-1,2,4-triazol-5-yl]ethyl}-5-[(2,2,2-trifluoroethyl)sulfonyl]benzamide]	90	–	100	100	–	–	–	–	–	–	mortality at 100 g/ha [8]: 90%
C[C@H](NC(=O)c1cc(Cl)cc(S(=O)(=O)C2CC2)c1)c1nc(C2CC2)nn1-c1ccc(C#N)cn1 [I-22]	100	100	100	100	100	100	100	100	80	100	–
C[C@H](NC(=O)c1cc(C2CC2)cc(S(=O)(=O)C2CC2)c1)c1nc(C2CC2)nn1-c1ccc(C#N)cn1 [I-56]	100	–	–	–	100	100	–	–	–	100	–
CC(NC(=O)c1cc(OC(F)(F)F)cc(C2CC2)c1)c1nc(I)nn1-c1ccc(C#N)cn1 (stereo not shown) [I-83]	100	–	–	–	100	100	100	–	80	100	–
CC(NC(=O)c1cc(OC(F)(F)F)cc(C2CC2)c1)c1nc(Br)nn1-c1ccc(C#N)cn1 (stereo not shown) [I-84]	100	–	–	–	–	–	100	–	–	100	–
C[C@H](NC(=O)c1cc(Cl)cc(S(=O)(=O)C2CC2)c1)c1ncnn1-c1ccc(C#N)cn1 [II-21]	90	–	100	100	100	100	–	100	–	100	mortality at 500 g/ha [9]: 100%; mortality at 100 g/ha [10]: 90%; mortality at 500 g/ha [10]: 100%; pest or weed control at 5 µg/cm2 [11]: 100%; mortality at 4 mg/m2 [12]: 80 to 100%; mortality at 20 mg/m2 [12]: 80 to 100%
C[C@H](NC(=O)c1cc(C#N)cc(S(C)(=O)=O)c1)c1ncnn1-c1ncccn1 [II-28]	–	–	100	100	–	–	–	100	100	–	mortality at 100 g/ha ([13]; application rate 100 g/ha): 100%; mortality at 500 g/ha ([13]; application rate 500 g/ha): 100%; pest or weed control at 500 g/ha ([5]; application rate 500 g/ha (=160 pg/well)): 100%; mortality at 4 mg/m2 ([14]; surface concentration 4 mg/m^2, exposure 30 minutes): 80 to 100%; mortality at 20 mg/m2 ([14]; surface concentration 20 mg/m^2, exposure 30 minutes): 80 to 100%; mortality at 100 g/ha [10]: 100%; mortality at 500 g/ha [10]: 100%; pest or weed control at 5 µg/cm2 [11]: 100%; mortality at 4 mg/m2 [12]: 80 to 100%; mortality at 20 mg/m2 [12]: 80 to 100%; pest or weed control at 100 g/ha ([7]; application rate 1 pg/cm^2 (=100 g/ha)): 100%
